These cell lines were tested with CN1CCN(CC1)C2=CC(=C(C=C2)NC3=NC=C4C(=N3)N(C5=CC=CC=C5C(=O)N4C)C)OC [XMD8-85] + C[C@@H](Oc1cc(-c2cnn(C3CCNCC3)c2)cnc1N)c1c(Cl)ccc(F)c1Cl [Crizotinib] (partner 1 µM) (assay: relative viability (nuclei count vs DMSO), 5 days (fraction); higher = more cells survive). Conditions: first compound 0.08 µM.
In short: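 Nuclei were stained with Hoechst during a one-step fixation (final 0.05% Triton X-100, 1% formaldehyde, 1 ug/ml Hoechst) carried out 5 days after dosing, then counted on 4× images. The cells, lung cancer lines in 1536-well plates, had been dosed by pin tool the day after seeding with one drug alone or a fixed anchor-drug dose plus five library-drug doses (not always all listed) in √10 steps. Relative viability is the nuclei count in treated wells divided by that in vehicle wells, and each value is the median of duplicate plates.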

| Cell Line | relative viability |
| --- | --- |
| 201T | 1.02 |
| A549 | 0.704 |
| A-427 | 0.897 |
| ABC-1 | 1.3 |
| BEN | 0.744 |
| CAL-12T | 0.357 |
| COR-L23 | 0.739 |
| Calu-6 | 0.689 |
| ChaGo-K-1 | 1.08 |
| EBC-1 | 0.197 |
| EKVX | 0.892 |
| EMC-BAC-2 | 0.748 |
| H3255 | 0.808 |
| HARA | 1.21 |
| HCC-15 | 0.852 |
| HCC-44 | 0.795 |
| HCC-78 | 0.363 |
| HCC-366 | 0.388 |
| HOP-62 | 1.04 |
| IA-LM | 0.678 |
| LC-2-ad | 0.442 |
| LCLC-97TM1 | 0.321 |
| LCLC-103H | 0.973 |
| LK-2 | 0.232 |
| LOU-NH91 | 0.749 |
| NCI-H441 | 0.592 |
| NCI-H1299 | 0.983 |
| NCI-H1650 | 1.01 |
| NCI-H2170 | 1.18 |

Same assay, conditions: first compound 0.253 µM

| Cell Line | relative viability |
| --- | --- |
| 201T | 1.04 |
| A549 | 0.711 |
| A-427 | 0.934 |
| ABC-1 | 0.882 |
| BEN | 0.865 |
| CAL-12T | 0.664 |
| COR-L23 | 0.561 |
| COR-L 105 | 0.807 |
| Calu-6 | 0.607 |
| ChaGo-K-1 | 1.15 |
| EBC-1 | 0.189 |
| EKVX | 0.985 |
| EPLC-272H | 0.678 |
| H3255 | 0.853 |
| HARA | 0.885 |
| HCC-15 | 0.859 |

| Cell Line | relative viability |
| --- | --- |
| HCC-44 | 0.769 |
| HCC-78 | 0.364 |
| HCC-827 | 0.919 |
| HOP-62 | 1.07 |
| IA-LM | 0.889 |
| LC-2-ad | 0.446 |
| LCLC-97TM1 | 0.569 |
| LCLC-103H | 1.07 |
| LK-2 | 0.244 |
| LOU-NH91 | 0.741 |
| NCI-H441 | 0.648 |
| NCI-H1299 | 0.962 |
| NCI-H1650 | 0.773 |
| NCI-H1703 | 0.586 |
| NCI-H2170 | 1.01 |

Same assay, conditions: first compound 0.8 µM

| Cell Line | relative viability |
| --- | --- |
| 201T | 1.03 |
| A549 | 0.872 |
| A-427 | 0.922 |
| ABC-1 | 1.41 |
| CAL-12T | 0.779 |
| COR-L23 | 0.723 |
| COR-L 105 | 0.793 |
| Calu-6 | 0.894 |
| ChaGo-K-1 | 1.44 |
| EBC-1 | 0.184 |
| EKVX | 1.12 |
| EMC-BAC-2 | 0.794 |
| EPLC-272H | 1.03 |
| H3255 | 0.822 |
| HARA | 1.3 |
| HCC-15 | 0.855 |
| HCC-44 | 0.821 |
| HCC-78 | 0.304 |
